Data published in US20100056522A1, “INTRAOCULAR PRESSURE-LOWERING AGENT COMPRISING COMPOUND HAVING HISTONE DEACETYLASE INHIBITOR EFFECT AS ACTIVE INGREDIENT” (Santen Pharmaceutical Co., Ltd., priority 2007, published 2010).

Columns and labels:
[1] = test system: HDAC (HeLa nuclear extract); assay: Test for evaluation of an HDAC inhibitory effect (HDAC Fluorimetric Assay/Drug Discovery Kit, Biomol); format: biochemical; details: final concentration of test compound 30 μM, rates of more than 100% are shown as 100%
Experimental: Using HDAC Fluorimetric Assay/Drug Discovery Kit (manufactured by Biomol), an HDAC inhibitory effect of the present compounds was measured according to the protocol included with the kit. The kit contains Buffer, HeLa nuclear extract (includes an HDAC), Substrate, Developer and Trichostatin A (an HDAC inhibitor).
A test compound was dissolved in dimethyl sulfoxide, whereby a 2 mg/mL solution was prepared. Then, the resulting solution was diluted with Buffer containing 5% dimethyl sulfoxide, whereby a 150 μM test compound solution was prepared.
1) To a 384-well culture plate, the test compound solution was added in an amount of 2 μL per well.
2) HeLa nuclear extract was diluted 30-fold with Buffer. The resulting solution was added in an amount of 3 μL per well and then, incubation was performed at 37° C. for 2 hours.
3) Substrate was diluted 500-fold with Buffer. The resulting solution was added in an amount of 5 μL per well (the final concentration of the test compound was 30 μM) and then, incubation was performed at 37° C. for 10 minutes.
4) Developer was diluted 20-fold with Buffer and Trichostatin A (2 μM) was added to it. The resulting solution was added in an amount of 10 μL per well and then, incubation was performed at room temperature for 15 minutes.
5) The fluorescence intensity of each well was measured using multilabel counter ARVO (manufactured by Wallac) with excitation at 360 nm and emission at 460 nm.
6) A control data was obtained from the same experiment except that Buffer containing 5% DMSO was added instead of the test compound solution as the above-mentioned procedure from 1) to 5).
7) A blank data was obtained from the same experiment except that Buffer containing 5% DMSO was added instead of the test compound solution and that Buffer was added instead of Hela nuclear extract as the above-mentioned procedure from 1) to 5).
Enzyme inhibitory rate (%) was calculated using the following equation.
(Enzyme Inhibitory Rate(%))=100×[1−{(Fluorescence Intensity of Test Compound Solution)−(Florescence Intensity of Blank)}/{(Florescence Intensity of Control)−(Florescence Intensity of Blank)}]

[2] = test system: TM-1 cells (human trabecular meshwork cell line); assay: Test for evaluation of effect of morphological change on trabecular meshwork cells (cell shape index); format: cell-based; details: 10 μM, 24 hours, control CSI 0.679, lower CSI indicates greater morphological change
Experimental: As a method for evaluating a cellular morphological change, an evaluation system using the cell shape index (hereinafter referred to as “CSI”) as an index has been reported in The Journal of Clinical Investigation, 103, 1141-1150 (1999). Therefore, according to the method described in the above document, an effect of morphological change by the present compounds on trabecular meshwork cells was evaluated.
A human trabecular meshwork cell line (hereinafter referred to as “TM-1 cells”) reported in Investigative Opthalmology & Visual Science, 43, 151-161 (2002) was used.
Culture medium 1: A reagent was prepared by adding fetal bovine serum (10%), L-glutamine (2 mM), amphotericin B (2.5 μg/mL), and gentamicin (25 μg/mL) to Dulbecco's Modified Eagle Medium (hereinafter referred to as “D-MEM”).
Culture medium 2: Fetal bovine serum (3%), L-glutamine (2 mM), amphotericin B (2.5 μg/mL), and gentamicin (25 μg/mL) were added to D-MEM.
Cell staining liquid: A mixed liquid of Calcein-AM (16 μM) and Hoechst 33342 (40 μM) was prepared by diluting a Calcein-AM solution (cytoplasmic staining reagent, manufactured by Dojindo Laboratories) and a Hoechst 33342 solution (nuclear staining reagent, manufactured by Dojindo Laboratories) with D-MEM containing L-glutamine (2 mM), amphotericin B (2.5 μg/mL), and gentamicin (25 μg/mL).
TM-1 cells subcultured at 37° C. in a 8% carbon dioxide gas atmosphere were treated with a trypsin/EDTA solution (0.05% trypsin and 0.53 mM tetrasodium ethylenediaminetetraacetate) at 24 hours before performing a drug treatment mentioned below and seeded on a 96-well culture plate. The culture medium 1 was used for the subculture of the cells. The culture medium 2 was used for the cell culture after seeding the cells on the plate.
A test compound was dissolved in dimethyl sulfoxide, whereby a 5 mM solution was prepared. Then, the resulting solution was diluted with the culture medium 2, whereby a 200 μM test compound solution was prepared.
It has been reported that Y-27632 which is a Rho kinase inhibitor induces a morphological change in trabecular meshwork cells in Investigative Opthalmology & Visual Science, 42, 137-144 (2001). Therefore, Y-27632 (produced according to the method described in WO 90/05723) was used as a positive control, and dissolved in dimethyl sulfoxide in the same manner as the test compound, whereby a 5 mM solution was prepared, and then, the resulting solution was diluted with the culture medium 2, whereby a 200 μM positive control compound solution was prepared.
1) To a 96-well culture plate, a solution of TM-1 cells adjusted to a cell density of […] was added in an amount of 95 μL (1.5×10^4 cells) per well.
2) Incubation was performed at 37° C. in a 8% carbon dioxide gas atmosphere for 24 hours.
3) The test compound solution or positive control compound solution was added in an amount of 5 μL per well (the final concentration of the test compound or positive control compound was 10 μM). As a control, the culture medium 2 containing dimethyl sulfoxide (4%) was added in an amount of 5 μL per well.
4) Incubation was performed at 37° C. in a 8% carbon dioxide gas atmosphere for 24 hours.
5) The cell staining liquid was added in an amount of 10 μL per well.
6) Incubation was performed at 37° C. in a 8% carbon dioxide gas atmosphere for 1 hour to stain the cells.
7) A 37% formaldehyde solution was added in an amount of 10 μL per well.
8) Incubation was performed at room temperature for 1 hour to fix the cells.
9) Washing with phosphate-buffered saline was performed.
10) Using Array Scan Vti HCS reader (manufactured by Cellomics), images of stained cells magnified with a 20-fold objective lens were captured in 80 fields (10 fields×8 wells) per test compound addition group.
11) CSI was calculated for each cell and an average value was obtained for each test compound addition group.
CSI was calculated using the following equation.
CSI=4π×(Cell Area)/(Cell Perimeter)^2

Compound | Enzyme Inhibitory Rate (%) [1] [%] | CSI [2]
Nc1ccccc1NC(=O)c1ccc(CN(CCCN2CCOCC2)C(=O)Nc2cccnc2)cn1 [Compound 1-8, N-(2-Aminophenyl)-5-[1-[3-(morpholin-4-yl)propyl]-3-(pyridin-3-yl)ureidomethyl]pyridine-2-carboxylic acid amide] | 96 | 0.538
CN(C)CCCN(Cc1ccc(C(=O)Nc2ccccc2N)nc1)C(=O)Nc1ccc2c(c1)OCCO2 [Compound 1-2, N-(2-Aminophenyl)-5-[3-(2,3-dihydrobenzo[1,4]dioxin-6-yl)-1-(3-dimethylaminopropyl)ureidomethyl]pyridine-2-carboxylic acid amide] | 100 | 0.516
Nc1ccccc1NC(=O)c1ccc(CN(CCCN2CCOCC2)C(=O)NCCc2ccccc2)cn1 [Compound 1-3, N-(2-Aminophenyl)-5-[1-[3-(morpholin-4-yl)propyl]-3-phenethylureidomethyl]pyridine-2-carboxylic acid amide] | 100 | 0.569
CN(C)CCCN(Cc1ccc(C(=O)Nc2ccccc2N)nc1)C(=O)Nc1ccc(OC(F)(F)F)cc1 [Compound 1-21, N-(2-Aminophenyl)-5-[1-(3-dimethylaminopropyl)-3-(4-trifluoromethoxyphenyl)ureidomethyl]pyridine-2-carboxylic acid amide] | 98 | 0.575
CN(C)c1ccc(C(=O)NCCCCCCC(=O)NO)cc1 [M 344, 4-Dimethylamino-N-(6-hydroxycarbamoylhexyl)benzamide, reference compound] | 99 | 0.500
Cc1ccc(NC(=O)N(CCCN(C)C)Cc2ccc(C(=O)Nc3ccccc3N)nc2)cc1F [Compound 1-13, N-(2-Aminophenyl)-5-[1-(3-dimethylaminopropyl)-3-(3-fluoro-4-methylphenyl)ureidomethyl]pyridine-2-carboxylic acid amide] | 100 | 0.545
C[C@@H](N)[C@H]1CC[C@H](C(=O)Nc2ccncc2)CC1 [Compound Y-27632, reference compound] | – | 0.543

More lines, main results first:

Enzyme Inhibitory Rate (%) [1] [%] | Compound | CSI [2]
98 | Cc1cccc(NC(=O)N(CCN(C)C)Cc2ccc(C(=O)Nc3ccccc3N)nc2)c1 [Compound 1-79, N-(2-Aminophenyl)-5-[1-(2-dimethylaminoethyl)-3-(3-methylphenyl)ureidomethyl]pyridine-2-carboxylic acid amide] | 0.497
96 | CN(C)CCCN(Cc1ccc(C(=O)Nc2ccccc2N)nc1)C(=O)Nc1nccs1 [Compound 1-41, N-(2-Aminophenyl)-5-[1-(3-dimethylaminopropyl)-3-(1,3-thiazol-2-yl)ureidomethyl]pyridine-2-carboxylic acid amide] | 0.499
98 | CN(C)c1ccc(NC(=O)N(CCCN2CCOCC2)Cc2ccc(C(=O)Nc3ccccc3N)nc2)cc1 [Compound 2-1, N-(2-Aminophenyl)-5-[3-(4-dimethylaminophenyl)-1-[3-(morpholin-4-yl)propyl]ureidomethyl]pyridine-2-carboxylic acid amide] | 0.574
100 | CCN(CC)c1ccc(NC(=O)N(CCCN(C)C)Cc2ccc(C(=O)Nc3ccccc3N)nc2)cc1 [Compound 2-3, N-(2-Aminophenyl)-5-[3-(4-diethylaminophenyl)-1-(3-dimethylaminopropyl)ureidomethy]pyridine-2-carboxylic acid amide] | 0.550
97 | CN(C)CCN(Cc1ccc(C(=O)Nc2ccccc2N)nc1)C(=O)Nc1ccsc1 [Compound 1-56, N-(2-Aminophenyl)-5-[1-(2-dimethylaminoethyl)-3-(thiophen-3-yl)ureidomethyl]pyridine-2-carboxylic acid amide] | 0.526
98 | COc1ccc2nc(NC(=O)N(CCCN(C)C)Cc3ccc(C(=O)Nc4ccccc4N)nc3)sc2c1 [Compound 1-42, N-(2-Aminophenyl)-5-[1-(3-dimethylaminopropyl)-3-(6-methoxy-1,3-benzothiazol-2-yl)ureidomethyl]pyridine-2-carboxylic acid amide] | 0.536
98 | Nc1ccccc1NC(=O)c1ccc(CN(CCCN2CCCC2)C(=O)Nc2cccnc2)cn1 [Compound 1-58, N-(2-Aminophenyl)-5-[3-(pyridin-3-yl)-1-[3-(pyrrolidin-1-yl)propyl]ureidomethyl]pyridine-2-carboxylic acid amide] | 0.518
97 | CCOC(=O)CCN(Cc1ccc(C(=O)Nc2ccccc2N)nc1)C(=O)Nc1ccc(N(C)C)cc1 [Compound 1-27, N-(2-Aminophenyl)-5-[3-(4-dimethylaminophenyl)-1-(2-ethoxycarbonylethyl)ureidomethyl]pyridine-2-carboxylic acid amide] | 0.624
99 | CN(C)CCCN(Cc1ccc(C(=O)Nc2ccccc2N)nc1)C(=O)Nc1nc2ccccc2[nH]1 [Compound 1-31, N-(2-Aminophenyl)-5-[3-(1H-benzimidazol-2-yl)-1-(3-dimethylaminopropyl)ureidomethyl]pyridine-2-carboxylic acid amide] | 0.551
99 | Nc1ccccc1NC(=O)c1ccc(CN(CCO)C(=O)Nc2ccc3c(c2)OCCO3)cn1 [Compound 2-10, N-(2-Aminophenyl)-5-[3-(2,3-dihydrobenzo[1,4]dioxin-6-yl)-1-(2-hydroxyethyl)ureidomethyl]pyridine-2-carboxylic acid amide] | 0.582
100 | CN(C)CCCN(Cc1ccc(C(=O)Nc2ccccc2N)nc1)C(=O)Nc1nc2ccccc2s1 [Compound 1-30, N-(2-Aminophenyl)-5-[3-(1,3-benzothiazol-2-yl)-1-(3-dimethylaminopropyl)ureidomethyl]pyridine-2-carboxylic acid amide] | 0.564
